Laboratory results as given in patent US20070167512A1, “Lipid metabolism improving agent” (Kyowa Hakko Kogyo Co., Ltd., priority 2003, published 2007).

Legend:
[1] = system: KK-Ay/Ta Jcl mice (animal models for hypertriglyceridemia and hyper-free fatty acidemia); assay: Serum free fatty acid concentration in KK-Ay/Ta Jcl mice fed compound-supplemented CE-2 feed (NEFA C-Test); format: in vivo; details: for Free Fatty Acid (serum concentration): KK-Ay/Ta Jcl male mice, 1% by weight in CE-2 feed ad libitum, serum after 18 h fast, 10th-11th day, mean ± standard error (n=5), Group 1 (CE-2 only) 1.12 ± 0.05; for Action for improving hyper-free fatty acidemia (conclusion) / Free fatty acid concentration in serum as compared with Group 1 (in words): KK-Ay/Ta Jcl mice, 1% by weight in feed; for Free fatty acid concentration in serum as compared with Group 1 (in words): t-test, p < 0.005 where significant
Source text: (§1) KK-Ay/Ta Jcl mice (CLEA JAPAN; males; six weeks age) (25 mice) which are animal models for appearing hypertriglyceridemia and hyper-free fatty acidemia were divided into five groups each comprising five mice and named group 1 to group 5.
(§2) The mice of group 1 to group 5 were made free to take feed and water. A commercially available feed CE-2 (manufactured by CLEA JAPAN) was ingested to the mice of group 1. CE-2 to which 1% by weight of trans-4-hydroxy-L-proline (manufactured by Kyowa Hakko Kogyo; hereinafter, abbreviated as hydroxyproline) was added was ingested to the mice of group 2. CE-2 to which 1% by weight of trans-N-acetyl-4-hydroxy-L-proline (manufactured by Kyowa Hakko Kogyo; hereinafter, abbreviated as N-acetylhydroxyproline) was added was ingested to the mice of group 3. CE-2 to which 1% by weight of trans-4-hydroxy-L-proline ethyl ester (manufactured by Sanyo Kagaku Kenkyusho; hereinafter, abbreviated as hydroxyproline ethyl ester) was added was ingested to the mice of group 4. CE-2 to which 1% by weight of trans-N,O-diacetyl-4-hydroxy-L-proline oleyl ester (manufactured by Nissei Kagaku; hereinafter, abbreviated as diacetylhydroxyproline oleyl ester) was added was ingested to the mice of group 5.
(§3) The mice were fasted for 18 hours during the 10th day to the 11th day after the start of the test and whole blood was collected from descending vena carva to prepare serum. Concentration of triglyceride in the serum was measured by a Triglyceride G-Test Wako (manufactured by Wako Pure Chemical) and concentration of free fatty acids therein was measured by an NEFA C-Test Wak (manufactured by Wako Pure Chemical). The value was shown by mean value ± standard error (n=5) and statistic ratio of risk (p value) was determined by a t-test. With regard to the ingested amounts during the test period, there was no significant difference among the groups 1 to 5.

[2] = system: KK-Ay/Ta Jcl mice (animal models for hypertriglyceridemia and hyper-free fatty acidemia); assay: Serum triglyceride concentration in KK-Ay/Ta Jcl mice fed compound-supplemented CE-2 feed (Triglyceride G-Test Wako); format: in vivo; details: for Triglyceride (serum concentration): KK-Ay/Ta Jcl male mice, 1% by weight in CE-2 feed ad libitum, serum after 18 h fast, 10th-11th day, mean ± standard error (n=5), Group 1 (CE-2 only) 282.4 ± 30.3; for Action for improving hypertriglyceridemia (conclusion) / Serum triglyceride concentration as compared with Group 1 (in words): KK-Ay/Ta Jcl mice, 1% by weight in feed; for Serum triglyceride concentration as compared with Group 1 (in words): t-test, p < 0.01 where significant
Source text: as §1, §2, §3

CCCCCCCC/C=C\CCCCCCCCOC(=O)[C@@H]1C[C@@H](OC(C)=O)CN1C(C)=O (relative stereo) [diacetylhydroxyproline oleyl ester, trans-N,O-diacetyl-4-hydroxy-L-proline oleyl ester]
Free Fatty Acid (serum concentration) [1]: 1.00 ± 0.07 mEq/l
Action for improving hyper-free fatty acidemia (conclusion) [1]: action for improving hyper-free fatty acidemia
Free fatty acid concentration in serum as compared with Group 1 (in words) [1]: tended to show low values
Triglyceride (serum concentration) [2]: 217.6 ± 18.3 mg/dL
Action for improving hypertriglyceridemia (conclusion) [2]: action for improving hypertriglyceridemia
Serum triglyceride concentration as compared with Group 1 (in words) [2]: tended to show low values

CC(=O)N1C[C@H](O)C[C@H]1C(=O)O [N-acetylhydroxyproline, trans-N-acetyl-4-hydroxy-L-proline]
Free Fatty Acid (serum concentration) [1]: 0.77 ± 0.06 mEq/l
Action for improving hyper-free fatty acidemia (conclusion) [1]: action for improving hyper-free fatty acidemia
Free fatty acid concentration in serum as compared with Group 1 (in words) [1]: significantly low
Triglyceride (serum concentration) [2]: 156.4 ± 23.3 mg/dL
Action for improving hypertriglyceridemia (conclusion) [2]: action for improving hypertriglyceridemia
Serum triglyceride concentration as compared with Group 1 (in words) [2]: significantly low

CCOC(=O)[C@@H]1C[C@@H](O)CN1 [hydroxyproline ethyl ester, trans-4-hydroxy-L-proline ethyl ester]
Free Fatty Acid (serum concentration) [1]: 0.68 ± 0.02 mEq/l
Action for improving hyper-free fatty acidemia (conclusion) [1]: action for improving hyper-free fatty acidemia
Free fatty acid concentration in serum as compared with Group 1 (in words) [1]: significantly low
Triglyceride (serum concentration) [2]: 168.7 ± 13.4 mg/dL
Action for improving hypertriglyceridemia (conclusion) [2]: action for improving hypertriglyceridemia
Serum triglyceride concentration as compared with Group 1 (in words) [2]: significantly low

O=C(O)[C@@H]1C[C@@H](O)CN1 [hydroxyproline, trans-4-hydroxy-L-proline]
Free Fatty Acid (serum concentration) [1]: 0.84 ± 0.05 mEq/l
Action for improving hyper-free fatty acidemia (conclusion) [1]: action for improving hyper-free fatty acidemia
Free fatty acid concentration in serum as compared with Group 1 (in words) [1]: significantly low
Triglyceride (serum concentration) [2]: 224.3 ± 23.1 mg/dL
Action for improving hypertriglyceridemia (conclusion) [2]: action for improving hypertriglyceridemia
Serum triglyceride concentration as compared with Group 1 (in words) [2]: tended to show low values
